Source: patent publication US7291641B2, “Derivatives of heterocycles with 5 members, their preparation and their use as medicaments” (Societe de Conseils de Recherches et d'Applications …, priority 1999, dated 2007)

Structure (SMILES)	melting point [°C]
CCCCOC(=O)NCCc1nc(-c2ccc(-c3ccccc3Cl)cc2)c[nH]1 [Example 454, butyl 2-[4-(2′-chloro-1,1′-biphenyl-4-yl)-1H-imidazol-2-yl]ethylcarbamate]	99.7
CCCCOC(=O)NCCc1nc(-c2ccc(-c3cccc(F)c3F)cc2)c[nH]1 [Example 455, butyl 2-[4-(2′,3′-difluoro-1,1′-biphenyl-4-yl)-1H-imidazol-2-yl]ethylcarbamate]	90
CCCCOC(=O)NCCc1nc(-c2ccc(-c3ccccc3Br)cc2)c[nH]1 [Example 456, butyl 2-[4-(2′-bromo-1,1′-biphenyl-4-yl)-1H-imidazol-2-yl]ethylcarbamate]	109.6
CCCCOC(=O)NCCc1nc(-c2ccc(-c3cc(F)cc(F)c3)cc2)c[nH]1 [Example 457, butyl 2-[4-(3′,5′-difluoro-1,1′-biphenyl-4-yl)-1H-imidazol-2-yl]ethylcarbamate]	111.1

The remaining lines, values ahead:

melting point [°C]	Structure (SMILES)
116 to 121	CCCCOC(=O)NCCc1nc(-c2ccc(-c3ccccc3OC)cc2)c[nH]1 [Example 458, butyl 2-[4-(2′-methoxy-1,1′-biphenyl-4-yl)-1H-imidazol-2-yl]ethylcarbamate]
100.5 to 101.5	CCCCOC(=O)NCCc1nc(-c2ccc(-c3cccc([N+](=O)[O-])c3)cc2)c[nH]1 [Example 459, butyl 2-[4-(3′-nitro-1,1′-biphenyl-4-yl)-1H-imidazol-2-yl]ethylcarbamate]
109.5	CCCCOC(=O)NCCc1nc(-c2ccc(-c3cc(F)ccc3F)cc2)c[nH]1 [Example 460, butyl 2-[4-(2′,5′-difluoro-1,1′-biphenyl-4-yl)-1H-imidazol-2-yl]ethylcarbamate]
112 to 113	CCCCOC(=O)NCCc1nc(-c2ccc(-c3cccc(OC)c3)cc2)c[nH]1 [Example 461, butyl 2-[4-(3′-methoxy-1,1′-biphenyl-4-yl)-1H-imidazol-2-yl]ethylcarbamate]
